In patent US12690589B2, “Herbicidal compositions comprising pyroxasulfone” (BASF SE, priority 2024, dated 2026):
Values joined by “and” are separate entries in the source; they are usually repeats but may differ in a detail not shown here. Identical values can stand only once.

Columns and labels:
Assay in all cases: Post-emergence application in field trials, herbicidal activity (damage scale 0 to 100%)
Assay type in all cases: in vivo
Glycine max (GLXMA) = system: Glycine max (GLXMA)
How it was run: (§1)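 Field sites with natural or seeded weeds were sprayed post-emergence via flat fan nozzles in 200 l/ha water plus 0.25 v/v % MSO adjuvant, solo or mixed with pyroxasulfone and other partners. Damage was scored 0–100% versus untreated plants at indicated DAT. Colby expected values were used to judge synergy.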

Senecio vulgaris (SENVU) = conditions: growth stage 61-62, height 25-30 cm
How it was run: as §1

[1] = system: Amaranthus palmeri (AMAPA); conditions: height 30 cm, 21 DAT, Table 1.1
Procedure: (§2) In the examples below, using the method of S. R. Colby (1967) “Calculating synergistic and antagonistic responses of herbicide combinations”, Weeds 15, p. 22ff., the value E, which is expected if the activity of the individual active compounds is only additive, was calculated:
(§3) [formula] • wherein • X=percent activity using active herbicide A at an application rate a; • Y=percent activity using active herbicide B (e.g. pyroxasulfone) at an application rate b; • E=expected activity (in %) by A+B at application rates a+b.
(§4) If the value found experimentally is higher than the value E calculated according to Colby, a synergistic effect is present.
(§5) On field test sites, natural weed infestation or seeded weeds were treated post-emergence of the weeds.
(§6) In the field trials, the weeds were treated as indicated below.
In the following experiments, the herbicidal activity for the individual herbicidal compositions (solo and mixture applications) was assessed at the indicated days after treatment (DAT). The assessments for the damage on undesired weeds caused by the composition was carried out using a scale from 0 to 100%, compared to the untreated control plants. Here, 0 means no damage and 100 means complete destruction of the plants. […]

Panicum maximum (PANMA) = conditions: height 20-25 cm, 21 DAT, Table 2.3
[2] = system: Amaranthus viridis (AMAVI); conditions: growth stage 16-18, height 10-15 cm, 20 DAT, Table 2.1
[3] = system: Echinochloa colonum (ECHCO); conditions: height 20-25 cm, 25 DAT, Table 3.2
Procedure: as §2, §3, §4, §5, §6
(§7) In the following experiments, the herbicidal activity for the individual herbicidal compositions (solo and mixture applications) was assessed at the indicated days after treatment (DAT). The assessments for the damage on undesired weeds caused by the composition was carried out using a scale from 0 to 100%, compared to the untreated control plants. Here, 0 means no damage and 100 means complete destruction of the plants.
(§8) Herbicide A-1 (300 g/l) and pyroxasulfone (85% WG) were, together with addition of 0.25 l/ha Dash® MSO Max as adjuvant, formulated in water as distribution medium (water volume 200 l/ha) and sprayed with commercial flat fan nozzles.

[4] = system: Amaranthus cruentus (AMACR); conditions: height 20-25 cm
Procedure: as §2, §3, §4, §5, §6, §7, §8

Sorghum vulgare (SORVU) = conditions: height 20-25 cm, 14 DAT, Table 3.1
Procedure: as §2, §3, §4, §5, §6, §7, §8

[5] = system: Amaranthus hybridus (AMACH); conditions: height 20-25 cm, 14 DAT, Table 3.1
Procedure: as §2, §3, §4, §5, §6, §7, §8

[6] = 7 DAT, stage 12-13, height 7-11 cm, g ai/ha A-1 12.5, B 70, C-4 12.5
[7] = 42 DAT, stage 12-13, height 7-11 cm, g ai/ha A-1 18, B 70
[8] = 42 DAT, stage 12-13, height 7-11 cm, g ai/ha A-1 18, B 90

Cn1nc(C(F)(F)F)c(CS(=O)(=O)C2=NOC(C)(C)C2)c1OC(F)F [B, pyroxasulfone]
% Herbicidal activity (Glycine max (GLXMA); [6]): 0%
% Herbicidal activity (Glycine max (GLXMA); [7]): 0%
% Herbicidal activity (Glycine max (GLXMA); [8]): 0%
% Herbicidal activity (Glycine max (GLXMA); GLXMA, growth stage 12-13, height 7-11 cm, B 70 g ai/ha, 7 DAT, Table 4.1): 0%
% Herbicidal activity (Glycine max (GLXMA); GLXMA, growth stage 12-13, height 7-11 cm, B 70 g ai/ha, 21 DAT, Table 4.3): 0%
% Herbicidal activity (Glycine max (GLXMA); GLXMA, growth stage 12-13, height 7-11 cm, B 90 g ai/ha, 7 DAT, Table 4.1): 0%
% Herbicidal activity (Glycine max (GLXMA); GLXMA, growth stage 12-13, height 7-11 cm, B 90 g ai/ha, 21 DAT, Table 4.3): 0%
% Herbicidal activity (Senecio vulgaris (SENVU); B 70 g ai/ha, 7 DAT, Table 4.2): 30%
% Herbicidal activity (Senecio vulgaris (SENVU); B 70 g ai/ha, 21 DAT, Table 4.4): 20% and 10%
% Herbicidal activity (Senecio vulgaris (SENVU); B 90 g ai/ha, 21 DAT, Table 4.4): 20%
% Herbicidal activity ([1]; B 120 g ai/ha): 2%
% Herbicidal activity (Panicum maximum (PANMA); B 120 g ai/ha): 0%
% Herbicidal activity ([2]; B 120 g ai/ha): 0%
% Herbicidal activity ([3]; B 120 g ai/ha): 12%
% Herbicidal activity ([4]; B 120 g ai/ha, 14 DAT, Table 3.1): 13%
% Herbicidal activity ([4]; B 120 g ai/ha, 25 DAT, Table 3.2): 16%
% Herbicidal activity (Sorghum vulgare (SORVU); B 120 g ai/ha): 5%
% Herbicidal activity ([5]; B 120 g ai/ha): 16%

CCOC(=O)COc1ccccc1Oc1nc(-n2c(=O)cc(C(F)(F)F)n(C)c2=O)c(F)cc1Cl [A-1, ethyl 2-[2-[[3-chloro-5-fluoro-6-[3-methyl-2,6-dioxo-4-(trifluoromethyl)pyrimidin-1-yl]-2-pyridyl]oxy]phenoxy]acetate]
% Herbicidal activity (Glycine max (GLXMA); [6]): 90%
% Herbicidal activity (Glycine max (GLXMA); [7]): 95%
% Herbicidal activity (Glycine max (GLXMA); [8]): 95%
% Herbicidal activity (Glycine max (GLXMA); GLXMA, growth stage 12-13, height 7-11 cm, A-1 12.5 g ai/ha, 7 DAT, Table 4.1): 90%
% Herbicidal activity (Glycine max (GLXMA); GLXMA, growth stage 12-13, height 7-11 cm, A-1 12.5 g ai/ha, 21 DAT, Table 4.3): 95%
% Herbicidal activity (Glycine max (GLXMA); GLXMA, growth stage 12-13, height 7-11 cm, A-1 18 g ai/ha, 7 DAT, Table 4.1): 90%
% Herbicidal activity (Glycine max (GLXMA); GLXMA, growth stage 12-13, height 7-11 cm, A-1 18 g ai/ha, 21 DAT, Table 4.3): 92%
% Herbicidal activity (Senecio vulgaris (SENVU); A-1 12.5 g ai/ha, 7 DAT, Table 4.2): 90%
% Herbicidal activity (Senecio vulgaris (SENVU); A-1 12.5 g ai/ha, 21 DAT, Table 4.4): 40%
% Herbicidal activity (Senecio vulgaris (SENVU); A-1 18 g ai/ha, 21 DAT, Table 4.4): 40%
% Herbicidal activity ([1]; A-1 25 g ai/ha): 85%
% Herbicidal activity (Panicum maximum (PANMA); A-1 25 g ai/ha): 75%
% Herbicidal activity ([2]; A-1 25 g ai/ha): 71%
% Herbicidal activity ([2]; A-1 50 g ai/ha): 83%
% Herbicidal activity ([3]; A-1 50 g ai/ha): 55%
% Herbicidal activity ([4]; A-1 25 g ai/ha, 14 DAT, Table 3.1): 88%
% Herbicidal activity ([4]; A-1 25 g ai/ha, 25 DAT, Table 3.2): 89%
% Herbicidal activity ([4]; A-1 50 g ai/ha, 14 DAT, Table 3.1): 91%
% Herbicidal activity ([4]; A-1 50 g ai/ha, 25 DAT, Table 3.2): 91%
% Herbicidal activity (Sorghum vulgare (SORVU); A-1 50 g ai/ha): 88%
% Herbicidal activity ([5]; A-1 50 g ai/ha): 87%
